The text below walks through data of patent publication US6090955A (priority 1994, dated 2000).

The conditions of series [1]: cited from earlier work.
The nature of series [2]: Tolerability in MaTu-bearing nude mice (toxic deaths, body weight change, hemotoxicity). Particulars: i.p., 12.5 mg/kg/inj., treatment d 10-13. It is filed as in vivo, Ncr:nu/nu female mice. An excerpt:
|Animals: Ncr:nu/nu female

The subject of the next series is human breast tumors. Particulars: cited from earlier work.
Another series deals with human glioblastoma. Particulars: 12.5 mg/kg/4 days; cited from earlier work.
A further series has as its system P388 cells. Particulars: in vitro, free vs liposome-encapsulated vs nanoparticular taxol; cited from earlier work.
In the next series the test system is P388 leukemia. Particulars: implanted P388 leukemia; cited from earlier work.
The next series deals with B16 melanoma. Particulars: implanted B16 melanoma; cited from earlier work.
The subject of the next series is microtubuli. Particulars: cited from earlier work.
The conditions of series [3]: dilution of Cremophor/alcohol solutions with physiological salt solution; cited from earlier work.
For the next series, the system named is P388. Particulars: 12.5 mg/kg/4 days; free vs liposomal; cited from earlier work.

Take polyethoxylated castor oil [Cremophor]: in series [1], the “toxicities observed in man” value was “increased formation of chylomicrons”.

On to `CC(=O)O[C@H]1C(=O)[C@@]2(C)[C@H]([C@H](OC(=O)c3ccccc3)[C@]3(O)C[C@H](OC(=O)[C@H](O)[C@@H](NC(=O)c4ccccc4)c4ccccc4)C(C)=C1C3(C)C)[C@]1(OC(C)=O)CO[C@@H]1C[C@@H]2O` [Taxol], for which the “BWC (%) d10-13” value in series [2] is listed as -1%. For the same compound, in series [2] (8 nude mice), the “Toxic deaths (d): day of death” value came out at 16 days. The “Toxic deaths (d): number” value in series [2] (8 nude mice) stood at 1. Besides, the antineoplastic activity result with human breast tumors, in the series with P388 leukemia and with B16 melanoma was “clear antineoplastic activity” throughout. In the series with human glioblastoma, the “decrease in tumor growth” value is “significant decrease in tumor growth”. For the same compound, in the series with P388 cells, the “growth inhibition of P388 cells” value is reported as “inhibited equally by all three forms of the drug”. Further, the depolymerization of microtubuli entry in the series on microtubuli is listed as “stabilizes the microtubuli by inhibiting their depolymerization”. For the same compound, the “arrangement and bundling of microtubuli” value in the series on microtubuli (during the whole of the cell cycle) was “abnormal arrangement and bundling of microtubuli”. In the series with microtubuli (from tubuli dimers), the polymerization of microtubuli entry was “promotes the polymerization of microtubuli”. Besides, in series [3], the “stability in physiological salt solution” value is “not more than 24 hours”. Besides, the “therapeutic effectiveness on P388 in vivo” value in the series on P388 is listed as “comparable in their therapeutic effectiveness”.
